# Assay results: ChEMBL document CHEMBL3856212, “Synthesis, anti-proliferative and genotoxicity studies of 6-chloro-5-(2-substituted-ethyl)-1,3-dihydro-2H-indol-2-ones and 6-chloro-5-(2-chloroethyl)-3-(alkyl/ary-2-ylidene)indolin-2-ones” (Eur J Med Chem, 2016)
# Tests used:
# [1] = Cytotoxicity against human CCRF-CEM cells assessed as growth inhibition after 48 hrs by SRB assay; format: functional; conditions: for CC50: read-out: LD50 (the source's name)
# [2] = Cytotoxicity against human RPMI8226 cells assessed as growth inhibition after 48 hrs by SRB assay; format: functional; conditions: RPMI-8226, 48 h; for CC50: read-out: LD50 (the source's name)
# [3] = Cytotoxicity against human A549 cells assessed as growth inhibition after 48 hrs by SRB assay; format: functional; conditions: A549, 48 h; for CC50: read-out: LD50 (the source's name)
# [4] = Cytotoxicity against human NCI-H226 cells assessed as growth inhibition after 48 hrs by SRB assay; format: functional; conditions: NCI-H226, 48 h; for CC50: read-out: LD50 (the source's name)
# [5] = Cytotoxicity against human NCI-H460 cells assessed as growth inhibition after 48 hrs by SRB assay; format: functional; conditions: NCI-H460, 48 h; for CC50: read-out: LD50 (the source's name)
# [6] = Cytotoxicity against human HCT116 cells assessed as growth inhibition after 48 hrs by SRB assay; format: functional; conditions: HCT-116, 48 h; for CC50: read-out: LD50 (the source's name)
# [7] = Cytotoxicity against human HT-29 cells assessed as growth inhibition after 48 hrs by SRB assay; format: functional; conditions: HT-29, 48 h; for CC50: read-out: LD50 (the source's name)
# [8] = Cytotoxicity against human SW620 cells assessed as growth inhibition after 48 hrs by SRB assay; format: functional; conditions: SW-620, 48 h; for CC50: read-out: LD50 (the source's name)
# [9] = Cytotoxicity against human SF539 cells assessed as growth inhibition after 48 hrs by SRB assay; format: functional; conditions: SF-539, 48 h; for CC50: read-out: LD50 (the source's name)
# [10] = Cytotoxicity against human M14 cells assessed as growth inhibition after 48 hrs by SRB assay; format: functional; conditions: M14, 48 h; for CC50: read-out: LD50 (the source's name)
# [11] = Cytotoxicity against human SK-MEL-28 cells assessed as growth inhibition after 48 hrs by SRB assay; format: functional; conditions: SK-MEL-28, 48 h; for CC50: read-out: LD50 (the source's name)
# [12] = Cytotoxicity against human UACC62 cells assessed as growth inhibition after 48 hrs by SRB assay; format: functional; conditions: UACC-62, 48 h; for CC50: read-out: LD50 (the source's name)
# [13] = Cytotoxicity against human OVCAR4 cells assessed as growth inhibition after 48 hrs by SRB assay; format: functional; conditions: OVCAR-4, 48 h; for CC50: read-out: LD50 (the source's name)
# [14] = Cytotoxicity against human 786-0 cells assessed as growth inhibition after 48 hrs by SRB assay; format: functional; conditions: 786-0, 48 h; for CC50: read-out: LD50 (the source's name)
# [15] = Cytotoxicity against human MCF7 cells assessed as growth inhibition after 48 hrs by SRB assay; format: functional; conditions: MCF7, 48 h; for CC50: read-out: LD50 (the source's name)
# [16] = Cytotoxicity against human MDA-MB-468 cells assessed as growth inhibition after 48 hrs by SRB assay; format: functional; conditions: MDA-MB-468, 48 h; for CC50: read-out: LD50 (the source's name)
# [17] = Cytotoxicity against human A549 cells assessed as assessed as growth inhibition at 10^-5 M after 48 hrs by SRB assay relative to control; format: functional; conditions: A549, 48 h, read-out: GI
# [18] = Cytotoxicity against human EKVX cells assessed as assessed as growth inhibition at 10^-5 M after 48 hrs by SRB assay relative to control; format: functional; conditions: read-out: GI
# [19] = Cytotoxicity against human HOP62 cells assessed as assessed as growth inhibition at 10^-5 M after 48 hrs by SRB assay relative to control; format: functional; conditions: HOP-62, 48 h, read-out: GI
# [20] = Cytotoxicity against human HT-29 cells assessed as assessed as growth inhibition at 10^-5 M after 48 hrs by SRB assay relative to control; format: functional; conditions: HT-29, 48 h, read-out: GI
# [21] = Cytotoxicity against human U251 cells assessed as assessed as growth inhibition at 10^-5 M after 48 hrs by SRB assay relative to control; format: functional; conditions: U-251, 48 h, read-out: GI
# [22] = Cytotoxicity against human SK-MEL-28 cells assessed as assessed as growth inhibition at 10^-5 M after 48 hrs by SRB assay relative to control; format: functional; conditions: SK-MEL-28, 48 h, read-out: GI
# [23] = Cytotoxicity against human UACC62 cells assessed as assessed as growth inhibition at 10^-5 M after 48 hrs by SRB assay relative to control; format: functional; conditions: UACC-62, 48 h, read-out: GI
# [24] = Cytotoxicity against human OVCAR4 cells assessed as assessed as growth inhibition at 10^-5 M after 48 hrs by SRB assay relative to control; format: functional; conditions: OVCAR-4, 48 h, read-out: GI
# [25] = Cytotoxicity against human OVCAR5 cells assessed as assessed as growth inhibition at 10^-5 M after 48 hrs by SRB assay relative to control; format: functional; conditions: OVCAR-5, 48 h, read-out: GI
# [26] = Cytotoxicity against human NCI-ADR-RES cells assessed as assessed as growth inhibition at 10^-5 M after 48 hrs by SRB assay relative to control; format: functional; conditions: read-out: GI
# [27] = Cytotoxicity against human ACHN cells assessed as assessed as growth inhibition at 10^-5 M after 48 hrs by SRB assay relative to control; format: functional; conditions: read-out: GI
# [28] = Cytotoxicity against human MCF7 cells assessed as assessed as growth inhibition at 10^-5 M after 48 hrs by SRB assay relative to control; format: functional; conditions: MCF7, 48 h, read-out: GI
# [29] = Cytotoxicity against human T47D cells assessed as assessed as growth inhibition at 10^-5 M after 48 hrs by SRB assay relative to control; format: functional; conditions: read-out: GI
# [30] = Cytotoxicity against human MDA-MB-468 cells assessed as assessed as growth inhibition at 10^-5 M after 48 hrs by SRB assay relative to control; format: functional; conditions: MDA-MB-468, 48 h, read-out: GI
# Mus musculus [31] = organism: Mus musculus; assay: Genotoxicity in mouse EAC cells at 250 uM after 24 hrs by micronucleus assay (reference value: 3.5 +/- 0.30%); format: toxicity, cell-based; conditions: ehrlich
# Mus musculus [32] = organism: Mus musculus; assay: Genotoxicity in mouse EAC cells at 375 uM after 24 hrs by micronucleus assay (reference value: 3.5 +/- 0.30%); format: toxicity, cell-based; conditions: ehrlich
# Mus musculus [33] = organism: Mus musculus; assay: Genotoxicity in mouse EAC cells at 500 uM after 24 hrs by micronucleus assay (reference value: 3.5 +/- 0.30%); format: toxicity, cell-based; conditions: ehrlich
# [34] = Cytotoxicity against human NCI-H322M cells assessed as assessed as growth inhibition at 10^-5 M after 48 hrs by SRB assay relative to control; format: functional; conditions: read-out: GI
smiles,measurement,setting,value
O=C1Cc2cc(CCN3CCNCC3)c(Cl)cc2N1,GI50,[1],2.98 µM
same,TGI,[1],> 1 µM
same,CC50,[1],> 1 µM
same,GI50,[2],6.03 µM
same,TGI,[2],> 1 µM
same,CC50,[2],> 1 µM
same,GI50,[3],6.85 µM
same,TGI,[3],> 1 µM
same,CC50,[3],> 1 µM
same,GI50,[4],1 µM
same,TGI,[4],> 1 µM
same,CC50,[4],> 1 µM
same,GI50,[5],2.29 µM
same,TGI,[5],> 1 µM
same,CC50,[5],> 1 µM
same,GI50,[6],1 µM
same,TGI,[6],> 1 µM
same,CC50,[6],> 1 µM
same,GI50,[7],1 µM
same,TGI,[7],> 1 µM
same,CC50,[7],> 1 µM
same,GI50,[8],4.97 µM
same,TGI,[8],> 1 µM
same,CC50,[8],> 1 µM
same,GI50,[9],1 µM
same,TGI,[9],> 1 µM
same,CC50,[9],> 1 µM
same,GI50,[10],3.02 µM
same,TGI,[10],2.65 µM
same,CC50,[10],> 1 µM
same,GI50,[11],3.7 µM
same,TGI,[11],> 1 µM
same,CC50,[11],> 1 µM
same,GI50,[12],6.54 µM
same,TGI,[12],> 1 µM
same,CC50,[12],> 1 µM
same,GI50,[13],8.78 µM
same,TGI,[13],> 1 µM
same,CC50,[13],> 1 µM
same,GI50,[14],1 µM
same,TGI,[14],> 1 µM
same,CC50,[14],> 1 µM
same,GI50,[15],3.65 µM
same,TGI,[15],> 1 µM
same,CC50,[15],> 1 µM
same,GI50,[16],2.24 µM
same,TGI,[16],7.42 µM
same,CC50,[16],> 1 µM
same,inhibition of growth at 10 µM,[17],51.1%
same,inhibition of growth at 10 µM,[18],75.2%
same,inhibition of growth at 10 µM,[19],43.7%
same,inhibition of growth at 10 µM,[20],11.9%
same,inhibition of growth at 10 µM,[21],43%
same,inhibition of growth at 10 µM,[22],42.2%
same,inhibition of growth at 10 µM,[23],44.8%
same,inhibition of growth at 10 µM,[24],19%
same,inhibition of growth at 10 µM,[25],34.7%
same,inhibition of growth at 10 µM,[26],51.6%
same,inhibition of growth at 10 µM,[27],35.5%
same,inhibition of growth at 10 µM,[28],74.9%
same,inhibition of growth at 10 µM,[29],17.3%
same,inhibition of growth at 10 µM,[30],89%
same,Activity,Mus musculus [31],4.43%
same,Activity,Mus musculus [32],6.33%
same,Activity,Mus musculus [33],6.26%
same,inhibition of growth at 10 µM,[34],19.3%
O=C1Cc2cc(CCn3cncn3)c(Cl)cc2N1,GI50,[1],3.5 µM
same,TGI,[1],> 1 µM
same,CC50,[1],> 1 µM
same,GI50,[2],1 µM
same,TGI,[2],> 1 µM
same,CC50,[2],> 1 µM
same,GI50,[3],1.65 µM
same,TGI,[3],> 1 µM
same,CC50,[3],> 1 µM
same,GI50,[4],1 µM
same,TGI,[4],> 1 µM
same,CC50,[4],> 1 µM
same,GI50,[5],6.86 µM
same,TGI,[5],> 1 µM
same,CC50,[5],> 1 µM
same,GI50,[6],3.2 µM
same,TGI,[6],> 1 µM
same,CC50,[6],> 1 µM
same,GI50,[7],1 µM
same,TGI,[7],> 1 µM
same,CC50,[7],> 1 µM
same,GI50,[8],6.6 µM
same,TGI,[8],> 1 µM
same,CC50,[8],> 1 µM
same,GI50,[9],1 µM
same,TGI,[9],> 1 µM
same,CC50,[9],> 1 µM
same,GI50,[10],3.96 µM
same,TGI,[10],> 1 µM
same,CC50,[10],> 1 µM
same,GI50,[11],2.1 µM
same,TGI,[11],> 1 µM
same,CC50,[11],> 1 µM
same,GI50,[12],2.07 µM
same,TGI,[12],> 1 µM
same,CC50,[12],> 1 µM
same,GI50,[13],1 µM
same,TGI,[13],> 1 µM
same,CC50,[13],> 1 µM
same,GI50,[14],1 µM
same,TGI,[14],> 1 µM
same,CC50,[14],> 1 µM
same,GI50,[15],4.02 µM
same,TGI,[15],> 1 µM
same,CC50,[15],> 1 µM
same,GI50,[16],2.18 µM
same,TGI,[16],9.54 µM
same,CC50,[16],> 1 µM
same,inhibition of growth at 10 µM,[17],40.2%
same,inhibition of growth at 10 µM,[18],70.5%
same,inhibition of growth at 10 µM,[19],30.4%
same,inhibition of growth at 10 µM,[20],2.85%
same,inhibition of growth at 10 µM,[21],26.6%
same,inhibition of growth at 10 µM,[22],32.8%
same,inhibition of growth at 10 µM,[23],31.8%
same,inhibition of growth at 10 µM,[24],13.2%
same,inhibition of growth at 10 µM,[25],12.6%
same,inhibition of growth at 10 µM,[26],47.1%
same,inhibition of growth at 10 µM,[27],25.4%
same,inhibition of growth at 10 µM,[28],71%
same,inhibition of growth at 10 µM,[29],0.92%
same,inhibition of growth at 10 µM,[30],64.9%
same,Activity,Mus musculus [31],3.5%
same,Activity,Mus musculus [32],4.13%
same,Activity,Mus musculus [33],5.23%
same,inhibition of growth at 10 µM,[34],7.87%
